Measurements as given in patent publication EP0314011A2, “Purine derivatives” (F. HOFFMANN-LA ROCHE AG, priority 1987, dated 1989).

Each compound was assayed on HTLV III (assay: Anti-HIV activity: p24 antigen capture assay in HTLV III-infected C8166 cells). Settings: concentration giving 50% protection; C8166 cells (human CD4+ T-lymphoblast line) infected with 10-fold TCD50 of virus; 72 h incubation at 37°C; viral protein 24 antigen in supernatant.
Assay type: cell-based
Experimental: Die Aktivität der Purinderivate der vorliegenden Erfindung gegen HIV kann wie folgt nachgewiesen werden.
In diesem Versuch verwendet man HTLV III, gezüchtet in C8166-Zellen (eine menschliche CD4⁺ T-Lymphoblastenlinie), RPM1 1640 Medium mit Bicarbonatpuffer, Antibiotika und l0%igem fötalem Rinderserum. Eine Zellensuspension wird mit der 10-fachen TCD₅₀ des Virus infiziert. Man lässt 90 Minuten bei 37°C adsorbieren. Die Zellen werden mit dem Medium gewaschen. Der Versuch wird in 6 ml Gewebekulturröhrchen durchgeführt. Jedes Röhrchen enthält 2 x 10⁵ infizierte Zellen in 1,5 ml Medium. Es werden 15 µl einer Lösung der Substanz in wässrigem Medium oder in DMSO zugesetzt. Nach 72 Stunden Inkubation bei 37°C in einer feuchten 5% CO₂ enthaltenden Atmosphäre werden die Kulturen zentrifugiert. Ein aliquoter Teil des Ueberstandes wird solubilisiert und einem Antigenabfangversuch unterworfen unter Verwendung eines primären Antiserums mit besonderer Reaktivität gegen virales Protein 24 und eines Meerrettich-Peroxidase-Detektionssystems. Die Farbenerzeugung wird spektrophotometrisch gemessen und in Abhängigkeit der Konzentration der Testsubstanz dargestellt. Die einen 50%igen Schutz erzeugende Konzentration (IC₅₀) wird ermittelt. Die Resultate sind in der folgenden Tabelle angegeben: […]

| SMILES | IC50 [µM] |
| --- | --- |
| Nc1nc(Cl)nc2c1ncn2[C@@H]1O[C@H](CO)C[C@@H]1F [Beispiel 1, 6-Amino-2-chlor-9-(2,3-dideoxy-2-fluor-β-D-threopentofuranosyl)-9H-purin] | 1 |
| [N-]=[N+]=Nc1nc(N)c2ncn([C@@H]3O[C@H](CO)C[C@@H]3F)c2n1 [Beispiel 2, 6-Amino-2-azido-9-(2,3-dideoxy-2-fluor-β-D-threopentofuranosyl)-9H-purin] | 10 |
| Nc1nc(N)c2ncn([C@@H]3O[C@H](CO)C[C@@H]3F)c2n1 [Beispiel 3, 2,6-Diamino-9-(2,3-dideoxy-2-fluor-β-D-threopentofuranosyl)-9H-purin] | 1 |
